These results are taken from patent US7687473B2, “5-amino-4-imidazolecarboxamide riboside and its nucleobase as potentiators of antifolate transport and metabolism” (Health Research, Inc., priority 2005, dated 2010).

For assay [1], the system named is CCRF-CEM human leukemia cells. The experiment in a line: Synthesis of methotrexate polyglutamates by CCRF-CEM cells. The class given is cell-based. Here is the method:
MTX polyglutamate synthesis. […] At the end of the exposure cells were rapidly chilled to 4 degrees C., harvested by centrifugation at 1000×g for 5 min, washed twice with iced 0.9% NaCl by centrifugation in the same manner. One mL of boiling 50 mM Na-phosphate, pH 5.5 was added, the pellet was triturated and the sample boiled for 5 min. The sample was rapidly cooled to 4 degrees C. Debris was removed by centrifugation as above. The supernatant was further clarified by centrifugation through an Amicon MPS-1 filter unit. […] A suitable volume was injected onto a reversed-phase HPLC column (C18) and eluted with a gradient of from 4-14% acetonitrile over about 43 min. One min fractions were collected and, after addition of 10 ml scintillation fluid, were quantitated by liquid scintillation counting.

For assay [2], the system named is CCRF-CEM cells. The assay is described as follows: [3H]MTX efflux from CCRF-CEM cells.
In assay [3] the target is T1, reduced folate carrier (RFC) (Homo sapiens, UniProt P41440).
T1 construct: endogenous in cells; host or cells: CCRF-CEM (parental)
T1 sequence (P41440 1-591): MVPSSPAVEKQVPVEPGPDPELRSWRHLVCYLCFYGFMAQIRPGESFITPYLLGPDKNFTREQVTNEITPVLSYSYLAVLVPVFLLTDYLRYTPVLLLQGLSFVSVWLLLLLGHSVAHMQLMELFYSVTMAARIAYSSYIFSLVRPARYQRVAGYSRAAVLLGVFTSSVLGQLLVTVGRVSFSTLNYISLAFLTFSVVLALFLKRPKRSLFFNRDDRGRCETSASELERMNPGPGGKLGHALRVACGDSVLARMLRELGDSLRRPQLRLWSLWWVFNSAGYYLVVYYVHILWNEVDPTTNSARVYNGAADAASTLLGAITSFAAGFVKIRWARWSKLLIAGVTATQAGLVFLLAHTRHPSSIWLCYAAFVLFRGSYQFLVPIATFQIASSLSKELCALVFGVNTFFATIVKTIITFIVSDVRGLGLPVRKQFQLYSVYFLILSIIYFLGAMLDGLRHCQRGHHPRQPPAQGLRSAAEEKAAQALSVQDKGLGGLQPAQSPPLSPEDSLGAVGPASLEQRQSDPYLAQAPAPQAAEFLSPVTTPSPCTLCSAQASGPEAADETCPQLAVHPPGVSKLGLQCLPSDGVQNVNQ
The experiment in a line: Kinetic constants for influx of [3H]MTX by CCRF-CEM cells. The class given is cell-based. Here is the method: (§1) Quantitation of folate and antifolate uptake. The method is essentially as follows. Briefly, logarithmically growing (3-5×10^5/ml) CCRF-CEM cells were harvested at room temperature by centrifugation at 1000×g for 5 min. After washing with the appropriate medium, cells were suspended at ≈2×10^7 cells/ml for use in transport studies. […] Anion-free MHS contains 250 mM sucrose and 20 mM HEPES, titrated to pH 7.4 with MgO. […] Uptake was measured as a function of time for 30 min (for rate and extent measurements) or over 5 min (studies requiring initial velocities). […] Uptake was terminated by diluting 100 μL samples into 1 ml of iced 0.9% NaCl. […] The supernatant was aspirated. The cell pellet was washed once with 1 ml iced 0.9% NaCl and centrifuged as above. The washed pellet was solubilized in 1 ml of 0.3% Triton X-100 by incubation for 60 min at 37° C. The solubilized pellet was transferred to a scintillation vial, 10 ml of Liquiscint (National Diagnostics, Atlanta, Ga.) was added and radioactivity was quantitated in a Beckman Model LS6500 liquid scintillation counter. Separate samples at the longest incubation time used in a particular experiment were harvested for HPLC analysis of intracellular contents as above, except that after the second wash the pellets were extracted with 1 ml boiling 0.1 M Na-phosphate, pH 5.5. The extract was clarified by centrifugation and the supernatant was filtered through an MPS-1 filter unit (Amicon) prior to HPLC analysis.
Inhibition of the vi of uptake was measured after pre-incubation of CCRF-CEM cells either with TMTX alone (measuring inhibition at the RFC) or with TMTX+Z (measuring inhibition during Z potentiation). […] All studies were carried out in standard transport medium. Inhibitory potency was measured in two series of experiments and AMT was included in each series as an internal control. Values are average±range of two determinations. […] Values are average±range for duplicate determinations.

In assay [4] the test system is CCRF-CEM cells. The experiment in a line: [3H]MTX uptake (initial velocity and 30 min accumulation) in CCRF-CEM cells. In kind it is cell-based, human. As to conditions: for Q10 for extent of [3H]MTX uptake at 30 min / Q10 for vi of [3H]MTX uptake (37° vs. 27°): 1 μM TMTX; for Vmax/Kt from vi (0-5 min) data: 1-10 μM MTX. Here is the method:
as §1

Assay [5] deals with CCRF-CEM cells. The assay is described as follows: cells. As to conditions: read-out: EC50, growth inhibition. The class given is cell-based, human. Here is the method: Inhibition of growth of human cell lines in vitro. Inhibition of growth of CCRF-CEM in continuous and intermittent drug exposures was measured. EC50 values were determined from plots of percent control growth versus the logarithm of drug concentration.
[…]; n=2). […]; n=2). Values presented are average±S.D. for n>2 and average±range for n=2. […] […]; EC50 data may therefore underestimate the biological potency.

For assay [6], the system named is CCRF-CEM cells. The experiment in a line: [3H]leucovorin uptake in CCRF-CEM cells. In kind it is cell-based, human. As to conditions: pre-incubation with Z alone, 1 μM [3H]LV. Here is the method: as §1
The mark [7] stands for this setting: 4 hr exposure to 2 μM [3H]MTX, Z 500 μM where present.
The mark [8] stands for this setting: influx of [3H]MTX, pre-incubation with solvent (MTX alone), 1 μM TMTX, or 1 μM TMTX + 0.5 mM Z.
The mark [9] stands for this setting: 500 μM Z, 4 hr exposure to 2 μM [3H]MTX.

Read-outs that look alike come from different tables or passages of the source. Where only a bound is given, the exact number is not on record here.

Turning to `CN(Cc1cnc2nc(N)nc(N)c2n1)c1ccc(C(=O)N[C@@H](CCC(=O)O)C(=O)O)cc1` [MTX, 4-amino-10-methylpteroylglutamic acid], in assay [1] (setting [7]), the “4-NH2-10-CH3-PteGlun, N ≧ 3” value was 3.8 pmol/10^7 cells; the “4-NH2-10-CH3-PteGlun, n = 1 (MTX)” value came out at 26.2 pmol/10^7 cells; the “4-NH2-10-CH3-PteGlun, n = 2” value came out at 23.8 pmol/10^7 cells; the “4-NH2-10-CH3-PteGlun, n = 3” value was found to be 2.3 pmol/10^7 cells. In assay [1] (setting [7]), the “4-NH2-10-CH3-PteGlun, n = 4” value was found to be 1.4 pmol/10^7 cells; the “4-NH2-10-CH3-PteGlun, n = 5” value was 0.1 pmol/10^7 cells; the “4-NH2-10-CH3-PteGlun, n ≧ 2” value is reported as 27.6 pmol/10^7 cells; the Total drug stood at 53.8 pmol/10^7 cells. The “Efflux t1/2” value in the assay on CCRF-CEM cells [2] (loading and efflux each ±0.5 mM Z (cross-over), 2 μM [3H]MTX) lay in the range of 14.6 to 18.7 min. In assay [3] (setting [8]), the Kt came to 3.0 ± 0.8 µM and the Vmax is 5.8 ± 0.9 pmol/min/10^7 cells. Moreover, in the assay with CCRF-CEM cells [4] (absence of Z), the “Intracellular radiolabel that is MTX at 30 min (HPLC)” value worked out at 86%, the “Intracellular radiolabel that is MTX-γ-Glu at 30 min (HPLC)” value is given as 12%, the “Q10 for extent of [3H]MTX uptake at 30 min” value stood at 3.45±0.15 and the “Q10 for vi of [3H]MTX uptake (37° vs. 27°)” value is 4.6±0.3. Also, in the assay on CCRF-CEM cells [4] (absence of Z), the “Vmax/Kt from vi (0-5 min) data” value turned out to be 0.44. In the assay with CCRF-CEM cells [4] (presence of 0.5 mM Z), the “Q10 for extent of [3H]MTX uptake at 30 min” value came out at 3.65±0.15, the “Q10 for vi of [3H]MTX uptake (37° vs. 27°)” value worked out at 5.9±0.1 and the “Vmax/Kt from vi (0-5 min) data” value is 0.47. Further, the “[MTX]i/[MTX]e at 30 min” value with CCRF-CEM cells [4] (presence of 0.5 mM Z, all MTX concentrations 1-10 μM, assuming 0.55 pL/cell) was at least 1.9. In addition, in the assay with CCRF-CEM cells [4] (presence of Z), the “Intracellular radiolabel that is MTX at 30 min (HPLC)” value turned out to be 83%, the “Intracellular radiolabel that is MTX-γ-(Glu)2 at 30 min (HPLC)” value was under 1% and the “Intracellular radiolabel that is MTX-γ-Glu at 30 min (HPLC)” value was determined as 7.5%.
Consider `NC(=O)c1ncn([C@@H]2O[C@H](CO)[C@@H](O)[C@H]2O)c1N` [Z, 5-amino-4-imidazolecarboxamide riboside], for which the “Increase of MTX polyglutamates (n≧2) accumulation” value in assay [1] (setting [9]) is on record as 3.5 fold. For the same molecule, the “Increase of longer MTX polyglutamates (n≧3)” value in assay [1] (setting [9]) is recorded as 6 fold. Besides, in assay [1] (setting [9]), the “Increase of total drug accumulation” value worked out at 3 fold. For the same molecule, the “MTXGn accumulation at 1 and 10 μM [3H]MTX” value in assay [1] (500 μM Z, data not shown) was “Increased MTXGn accumulation”. Besides, in assay [1] (cells initially treated with Z, data not shown), the “Drug retained after 2 hr efflux following 4 hr uptake” value is on record as “much higher levels of drug”. In addition, the “Effect on MTX efflux rates” value in the assay with CCRF-CEM cells [2] (0.5 mM Z during uptake and/or efflux) is “No significant difference”. Moreover, the EC50 (usually the concentration giving half of the maximal effect) with CCRF-CEM cells [5] (0-24/120 hr exposure) is 410 ± 50 µM; with CCRF-CEM cells [5] (120 hr exposure), 130 ± 20 µM. In assay [3] (Z addition in presence of TMTX), the “Increase of Vmax of MTX influx” value is reported as “≈ 3 fold”. Further, the “Potentiation of [3H]LV uptake” value in the assay on CCRF-CEM cells [6] is “does not potentiate”. In the assay on CCRF-CEM cells [4] (0.5 mM Z, 10 μM [3H]MTX), the “Potentiation of 30 min accumulation (highest)” value is recorded as 6 fold. Moreover, the “Potentiation of accumulation at 30 min” value in the assay on CCRF-CEM cells [4] (0.5 mM Z, HBSS) is recorded as “≈ 4 fold”; in the assay with CCRF-CEM cells [4] (0.5 mM Z, MHS) it was “≈ 2 fold”; in the assay on CCRF-CEM cells [4] (0.5 mM Z, standard medium), “≈ 2 fold”. Further, in the assay on CCRF-CEM cells [4] (Z added 5 min before 2 μM [3H]MTX), the “Effect on initial influx velocity (vi; 0-5 min)” value is “does not affect vi”. Moreover, the “Delay before potentiation of [3H]MTX uptake” value in the assay with CCRF-CEM cells [4] (Z added 10 min after [3H]MTX, data not shown) is on record as at least 5 min. The “Increase of MTX accumulation at 30 min” value in the assay with CCRF-CEM cells [4] (Z at 0.5-1.0 mM, 2 μM [3H]MTX) is at least 3 fold. For the same molecule, in the assay with CCRF-CEM cells [4] (Z present with TMTX in 10 min preincubation), the “Onset of potentiation of [3H]MTX uptake” value is given as “no delay in potentiation”. Besides, the “Delay before the onset of Z potentiation” value in the assay with CCRF-CEM cells [4] (all levels of MTX (1-10 μM), 0.5 mM Z) is “≈ 10 min”.
